Results as given in ChEMBL document CHEMBL5223117, “Synthesis and biological evaluation of novel N, N'-diarylurea derivatives as potent antibacterial agents against MRSA” (Bioorg Med Chem Lett, 2022).
In brackets after ≈: the same amount, converted by molar mass.

Key:
Staphylococcus aureus [1] = test: Antibacterial activity against methicillin resistant Staphylococcus aureus 18-2; format: functional
Staphylococcus aureus [2] = test: Bactericidal activity against vancomycin intermediate and methicillin resistant Staphylococcus aureus ATCC 700698; format: functional
[3] = test system: Staphylococcus epidermidis; test: Antibacterial activity against methicillin resistant Staphylococcus epidermidis 19-1; format: functional
Staphylococcus aureus [4] = test: Antibacterial activity against methicillin resistant Staphylococcus aureus 16-30; format: functional
Staphylococcus aureus [5] = test: Antibacterial activity against methicillin sensitive Staphylococcus aureus ATCC 29213; format: functional
[6] = Cytotoxicity against human HeLa cells by SRB assay; format: toxicity, cell-based
Staphylococcus aureus [7] = test: Bactericidal activity against methicillin resistant Staphylococcus aureus ATCC 33591; format: functional
Staphylococcus aureus [8] = test: Antibacterial activity against methicillin sensitive Staphylococcus aureus ATCC 33591; format: functional
Enterococcus faecalis [9] = test: Selectivity ratio of MBC for bactericidal activity against Vanomycin-resistant Enterococcus faecalis ATCC 51299 to MIC for antibacterial activity against Vanomycin-resistant Enterococcus faecalis ATCC 51299; format: functional
Staphylococcus aureus [10] = test: Selectivity ratio of MBC for bactericidal activity against vancomycin intermediate and methicillin resistant Staphylococcus aureus ATCC 700698 to MIC for antibacterial activity against vancomycin intermediate and methicillin resistant Staphylococcus aureus ATCC 700698; format: functional
Enterococcus faecium [11] = test: Antibacterial activity against Vanomycin-resistant Enterococcus faecium 15-6; format: functional
Staphylococcus aureus [12] = test: Antibacterial activity against methicillin sensitive Staphylococcus aureus 20-12; format: functional
Enterococcus faecium [13] = test: Antibacterial activity against Vanomycin-resistant Enterococcus faecium ATCC 51559; format: functional
Staphylococcus aureus [14] = test: Selectivity ratio of MBC for bactericidal activity against methicillin resistant Staphylococcus aureus 16-30 to MIC for antibacterial activity against methicillin resistant Staphylococcus aureus 16-30; format: functional
Enterococcus faecalis [15] = test: Bactericidal activity against Vanomycin-resistant Enterococcus faecalis ATCC 51299; format: functional
Enterococcus faecalis [16] = test: Antibacterial activity against Vanomycin-resistant Enterococcus faecalis ATCC 51575; format: functional
Staphylococcus aureus [17] = test: Bactericidal activity against methicillin resistant Staphylococcus aureus 16-30; format: functional
Staphylococcus aureus [18] = test: Antibacterial activity against methicillin sensitive Staphylococcus aureus 15; format: functional
[19] = test system: Staphylococcus epidermidis; test: Antibacterial activity against methicillin sensitive Staphylococcus epidermidis 17-13; format: functional
Enterococcus faecalis [20] = test: Antibacterial activity against Vanomycin-resistant Enterococcus faecalis ATCC 51299; format: functional
Staphylococcus aureus [21] = test: Antibacterial activity against methicillin resistant Staphylococcus aureus 20-11; format: functional
Staphylococcus aureus [22] = test: Selectivity ratio of MBC for bactericidal activity against methicillin resistant Staphylococcus aureus ATCC 33591 to MIC for antibacterial activity against methicillin resistant Staphylococcus aureus ATCC 33591; format: functional
Enterococcus faecium [23] = test: Selectivity ratio of MBC for bactericidal activity against Vanomycin-resistant Enterococcus faecium ATCC 700221 to MIC for antibacterial activity against Vanomycin-resistant Enterococcus faecium ATCC 700221; format: functional
Staphylococcus aureus [24] = test: Selectivity ratio of MBC for bactericidal activity against methicillin resistant Staphylococcus aureus ATCC 43300 to MIC for antibacterial activity against methicillin resistant Staphylococcus aureus ATCC 43300; format: functional
Enterococcus faecium [25] = test: Bactericidal activity against Vanomycin-resistant Enterococcus faecium ATCC 700221; format: functional
Staphylococcus aureus [26] = test: Antibacterial activity against methicillin resistant Staphylococcus aureus ATCC 33591; format: functional
[27] = test system: Staphylococcus epidermidis; test: Antibacterial activity against methicillin resistant Staphylococcus epidermidis 19-2; format: functional
[28] = test system: Staphylococcus epidermidis; test: Antibacterial activity against methicillin sensitive Staphylococcus epidermidis ATCC 12228; format: functional
Enterococcus faecium [29] = test: Antibacterial activity against Vanomycin-resistant Enterococcus faecium ATCC 700221; format: functional
Staphylococcus aureus [30] = test: Bactericidal activity against methicillin resistant Staphylococcus aureus ATCC 43300; format: functional
[31] = Cytotoxicity against human HepG2 cells by SRB assay; format: toxicity, cell-based
Staphylococcus aureus [32] = test: Antibacterial activity against vancomycin intermediate and methicillin resistant Staphylococcus aureus ATCC 700698; format: functional
Staphylococcus aureus [33] = test: Antibacterial activity against methicillin resistant Staphylococcus aureus ATCC 43300; format: functional
Staphylococcus aureus [34] = test: Antibacterial activity against vancomycin intermediate and methicillin resistant Staphylococcus aureus ATCC 700699; format: functional

Row | SMILES | MIC (Staphylococcus aureus [1]) [µM] | MIC [3] [µM] | MIC (Staphylococcus aureus [4]) [µM] | MIC (Staphylococcus aureus [5]) [µM] | IC50 [6] [µM] | MIC (Staphylococcus aureus [8]) [µM] | MIC (Enterococcus faecium [11]) [µM] | MIC (Staphylococcus aureus [12]) [µM] | MIC (Enterococcus faecium [13]) [µM] | MIC (Enterococcus faecalis [16]) [µM] | MIC (Staphylococcus aureus [18]) [µM] | MIC [19] [µM] | MIC (Enterococcus faecalis [20]) [µM] | MIC (Staphylococcus aureus [21]) [µM] | MIC [27] [µM] | MIC [28] [µM] | MIC (Enterococcus faecium [29]) [µM] | MIC (Staphylococcus aureus [32]) [µM] | MIC (Staphylococcus aureus [33]) [µM] | MIC (Staphylococcus aureus [34]) [µM] | other results
1 | O=C(Nc1ccc(Cl)c(C(F)(F)F)c1)Nc1cc(F)c(F)c(F)c1F | 0.31 (≈ 0.12 µg/mL) | 0.31 (≈ 0.12 µg/mL) | 0.65 (≈ 0.251 µg/mL) | 0.31 (≈ 0.12 µg/mL) | 8.9 | 0.31 (≈ 0.12 µg/mL) | 1.29 (≈ 0.499 µg/mL) | 0.65 (≈ 0.251 µg/mL) | 1.29 (≈ 0.499 µg/mL) | 5.17 (≈ 2 µg/mL) | 0.31 (≈ 0.12 µg/mL) | 0.31 (≈ 0.12 µg/mL) | 2.59 (≈ 1 µg/mL) | 0.31 (≈ 0.12 µg/mL) | 0.65 (≈ 0.251 µg/mL) | 0.65 (≈ 0.251 µg/mL) | 1.29 (≈ 0.499 µg/mL) | 0.31 (≈ 0.12 µg/mL) | 0.31 (≈ 0.12 µg/mL) | 0.31 (≈ 0.12 µg/mL) | MBC (Staphylococcus aureus [2]): 10.3 µM (≈ 4 µg/mL); MBC (Staphylococcus aureus [7]): 10.3 µM (≈ 4 µg/mL); Ratio (Enterococcus faecalis [9]): >32; Ratio (Staphylococcus aureus [10]): 33; Ratio (Staphylococcus aureus [14]): 16; MBC (Enterococcus faecalis [15]): > 82.8 µM; MBC (Staphylococcus aureus [17]): 10.3 µM (≈ 4 µg/mL); Ratio (Staphylococcus aureus [22]): 33; Ratio (Enterococcus faecium [23]): >32; Ratio (Staphylococcus aureus [24]): 33; MBC (Enterococcus faecium [25]): > 82.8 µM; MIC (Staphylococcus aureus [26]): 0.31 µM (≈ 0.12 µg/mL); MBC (Staphylococcus aureus [30]): 10.3 µM (≈ 4 µg/mL); IC50 [31]: 7.09 µM
2 | O=C(Nc1ccc(F)cc1)Nc1ccc(Cl)c(C(F)(F)F)c1 | 6.01 (≈ 2 µg/mL) | 6.01 (≈ 2 µg/mL) | – | 12 (≈ 4 µg/mL) | – | 6.01 (≈ 2 µg/mL) | 48.1 (≈ 16 µg/mL) | 12 (≈ 4 µg/mL) | 96.2 (≈ 32 µg/mL) | 192 (≈ 64 µg/mL) | 6.01 (≈ 2 µg/mL) | 6.01 (≈ 2 µg/mL) | 192 (≈ 64 µg/mL) | 12 (≈ 4 µg/mL) | 6.01 (≈ 2 µg/mL) | 6.01 (≈ 2 µg/mL) | 48.1 (≈ 16 µg/mL) | 12 (≈ 4 µg/mL) | 12 (≈ 4 µg/mL) | 3.01 (≈ 1 µg/mL) | –
3 | O=C(Nc1ccc(Cl)c(C(F)(F)F)c1)Nc1ccc(Cl)c(C(F)(F)F)c1 | 1.2 (≈ 0.501 µg/mL) | 1.2 (≈ 0.501 µg/mL) | 1.2 (≈ 0.501 µg/mL) | 1.2 (≈ 0.501 µg/mL) | 2.69 | 1.2 (≈ 0.501 µg/mL) | 2.4 (≈ 1 µg/mL) | 1.2 (≈ 0.501 µg/mL) | 4.79 (≈ 2 µg/mL) | 4.79 (≈ 2 µg/mL) | 1.2 (≈ 0.501 µg/mL) | 1.2 (≈ 0.501 µg/mL) | 4.79 (≈ 2 µg/mL) | 1.2 (≈ 0.501 µg/mL) | 1.2 (≈ 0.501 µg/mL) | 1.2 (≈ 0.501 µg/mL) | 4.79 (≈ 2 µg/mL) | 1.2 (≈ 0.501 µg/mL) | 1.2 (≈ 0.501 µg/mL) | 1.2 (≈ 0.501 µg/mL) | MBC (Staphylococcus aureus [7]): 4.79 µM (≈ 2 µg/mL); Ratio (Staphylococcus aureus [14]): 8; MBC (Staphylococcus aureus [17]): 9.59 µM (≈ 4 µg/mL); Ratio (Staphylococcus aureus [22]): 4; Ratio (Staphylococcus aureus [24]): 8; MIC (Staphylococcus aureus [26]): 1.2 µM (≈ 0.501 µg/mL); MBC (Staphylococcus aureus [30]): 9.59 µM (≈ 4 µg/mL); IC50 [31]: 7.72 µM
4 | O=C(Nc1ccc2c(c1)OC(F)(F)O2)Nc1ccc(Cl)c(C(F)(F)F)c1 | 1.27 (≈ 0.501 µg/mL) | 1.27 (≈ 0.501 µg/mL) | 0.63 (≈ 0.249 µg/mL) | 0.63 (≈ 0.249 µg/mL) | 9.02 | 0.63 (≈ 0.249 µg/mL) | 5.07 (≈ 2 µg/mL) | 1.27 (≈ 0.501 µg/mL) | 10.1 (≈ 4 µg/mL) | 10.1 (≈ 4 µg/mL) | 0.63 (≈ 0.249 µg/mL) | 1.27 (≈ 0.501 µg/mL) | 5.07 (≈ 2 µg/mL) | 1.27 (≈ 0.501 µg/mL) | 1.27 (≈ 0.501 µg/mL) | 1.27 (≈ 0.501 µg/mL) | 10.1 (≈ 4 µg/mL) | 0.63 (≈ 0.249 µg/mL) | 0.63 (≈ 0.249 µg/mL) | 0.63 (≈ 0.249 µg/mL) | MBC (Staphylococcus aureus [7]): 2.53 µM (≈ 0.999 µg/mL); Ratio (Staphylococcus aureus [14]): 8; MBC (Staphylococcus aureus [17]): 5.07 µM (≈ 2 µg/mL); Ratio (Staphylococcus aureus [22]): 4; Ratio (Staphylococcus aureus [24]): 4; MIC (Staphylococcus aureus [26]): 0.63 µM (≈ 0.249 µg/mL); MBC (Staphylococcus aureus [30]): 2.53 µM (≈ 0.999 µg/mL); IC50 [31]: 5.68 µM
